Experimental data reported in patent US20240050428A1 (Cullgen (Shanghai), Inc., priority 2020, published 2024).
pIC50: −log10 of the molar value. Like-named read-outs stand apart in the source and are kept apart here.

Assays:
[1] = test system: MOLM-13 cells; experiment: Cell viability assay (CellTiter-Glo) in MOLM-13 cells, alone or with gilteritinib; type: cell-based; conditions: Homo sapiens, MOLM-13 cells, three days, CellTiter-Glo
[2] = test system: MV4;11 cells; experiment: Cell viability assay (CellTiter-Glo) in MV4;11 cells, alone or with gilteritinib; type: cell-based; conditions: Homo sapiens, MV4;11 cells, three days, CellTiter-Glo, read-out: MV4
[3] = MOLM-13, 72 h, compound alone (without gilteritinib), read-out: MOLM-13 IC50
[4] = MOLM-13, 72 h, with gilteritinib 20 nM, read-out: MOLM-13 IC50 gilteritinib
[5] = MV4-11, 72 h, compound alone (without gilteritinib), 11 IC50
[6] = MV4-11, 72 h, with gilteritinib 10 nM, 11 IC50 gilteritinib
[7] = 72 h, compound alone (without gilteritinib), read-out: MOLM-13 IC50
[8] = 72 h, with gilteritinib 20 nM, read-out: MOLM-13 IC50 gilteritinib
[9] = 72 h, compound alone (without gilteritinib), 11 IC50
[10] = 72 h, with gilteritinib 10 nM, 11 IC50 gilteritinib

SMILES | pIC50 [1, 3] | pIC50 [1, 4] | pIC50 [2, 5] | pIC50 [2, 6] | pIC50 [1, 7] | pIC50 [1, 8] | pIC50 [2, 9] | pIC50 [2, 10]
O=C1CCC(N2Cc3c(Nc4ccnc(Nc5cccc(N6CCN(c7ncccn7)CC6)c5)n4)cccc3C2=O)C(=O)N1 (stereo not drawn) [GS-078, 3-(1-Oxo-4-((2-((3-(4-(pyrimidin-2-yl)piperazin-1-yl)phenyl)amino)pyrimidin-4-yl)amino)isoindolin-2-yl)piperidine-2,6-dione] | 7.00 to 8.00 | > 8.00 | 7.00 to 8.00 | > 8.00 | – | – | – | –
O=C1CCC(N2Cc3c(Nc4ccnc(Nc5cccc(C(=O)N6CCC(n7cc(-c8cnc9ccccc9n8)cn7)CC6)c5)n4)cccc3C2=O)C(=O)N1 (stereo not drawn) [GS-079, 3-(1-Oxo-4-((2-((3-(4-(4-(quinoxalin-2-yl)-1H-pyrazol-1-yl)piperidine-1-carbonyl)phenyl)amino)pyrimidin-4-yl)amino)isoindolin-2-yl)piperidine-2,6-dione] | < 6.00 | 6.00 to 7.00 | 6.00 to 7.00 | 7.00 to 8.00 | – | – | – | –
O=C1CCC(N2Cc3c(Nc4ccnc(Nc5cccc(C(=O)N6CCN(c7ccccn7)CC6)c5)n4)cccc3C2=O)C(=O)N1 (stereo not drawn) [GS-080, 3-(1-Oxo-4-((2-((3-(4-(pyridin-2-yl)piperazine-1-carbonyl)phenyl)amino)pyrimidin-4-yl)amino)isoindolin-2-yl)piperidine-2,6-dione] | < 6.00 | 6.00 to 7.00 | < 6.00 | 6.00 to 7.00 | – | – | – | –
O=C1CCC(N2Cc3c(Nc4ccnc(N5CCC(n6cc(-c7cnc8ccccc8n7)cn6)CC5)n4)cccc3C2=O)C(=O)N1 (stereo not drawn) [GS-081, 3-(1-Oxo-4-((2-(4-(4-(quinoxalin-2-yl)-1H-pyrazol-1-yl)piperidin-1-yl)pyrimidin-4-yl)amino)isoindolin-2-yl)piperidine-2,6-dione] | < 6.00 | < 6.00 | < 6.00 | < 6.00 | – | – | – | –
O=C(CC1CC(N2CCC(n3cc(-c4cnc5ccccc5n4)cn3)CC2)C1)NCc1ccc2c(c1)CN(C1CCC(=O)NC1=O)C2=O (stereo not drawn) [GS-082, N-((2-(2,6-Dioxopiperidin-3-yl)-1-oxoisoindolin-5-yl)methyl)-2-(3-(4-(4-(quinoxalin-2-yl)-1H-pyrazol-1-yl)piperidin-1-yl)cyclobutyl)acetamide] | < 6.00 | 6.00 to 7.00 | < 6.00 | 6.00 to 7.00 | – | – | – | –
O=C(CC1CC1N1CCC(n2cc(-c3cnc4ccccc4n3)cn2)CC1)NCc1ccc2c(c1)CN(C1CCC(=O)NC1=O)C2=O (stereo not drawn) [GS-083, N-((2-(2,6-Dioxopiperidin-3-yl)-1-oxoisoindolin-5-yl)methyl)-2-(2-(4-(4-(quinoxalin-2-yl)-1H-pyrazol-1-yl)piperidin-1-yl)cyclopropyl)acetamide] | 6.00 to 7.00 | 7.00 to 8.00 | 7.00 to 8.00 | 7.00 to 8.00 | – | – | – | –
O=C1CCC(N2Cc3c(Nc4ccnc(Nc5cccc(-n6cc(-c7cnc8ccccc8n7)cn6)c5)n4)cccc3C2=O)C(=O)N1 (stereo not drawn) [GS-084, 3-(1-Oxo-4-((2-((3-(4-(quinoxalin-2-yl)-1H-pyrazol-1-yl)phenyl)amino)pyrimidin-4-yl)amino)isoindolin-2-yl)piperidine-2,6-dione] | < 6.00 | < 6.00 | < 6.00 | < 6.00 | – | – | – | –
O=C1CCC(N2Cc3c(Nc4ccnc(NCCC(=O)N5CCC(n6cc(-c7cnc8ccccc8n7)cn6)CC5)n4)cccc3C2=O)C(=O)N1 (stereo not drawn) [GS-085, 3-(1-Oxo-4-((2-((3-oxo-3-(4-(4-(quinoxalin-2-yl)-1H-pyrazol-1-yl)piperidin-1-yl)propyl)amino)pyrimidin-4-yl)amino)isoindolin-2-yl)piperidine-2,6-dione] | < 6.00 | < 6.00 | < 6.00 | < 6.00 | – | – | – | –
O=C(CC1CCCC(N2CCC(n3cc(-c4cnc5ccccc5n4)cn3)CC2)C1)NCc1ccc2c(c1)CN(C1CCC(=O)NC1=O)C2=O (stereo not drawn) [GS-086, N-((2-(2,6-dioxopiperidin-3-yl)-1-oxoisoindolin-5-yl)methyl)-2-(3-(4-(4-(quinoxalin-2-yl)-1H-pyrazol-1-yl)piperidin-1-yl)cyclohexyl)acetamide] | < 6.00 | < 6.00 | < 6.00 | 6.00 to 7.00 | – | – | – | –
O=C(CNc1cccc(N2CCC(n3cc(-c4cnc5ccccc5n4)cn3)CC2)c1)NCc1scc2c1CN(C1CCC(=O)NC1=O)C2=O (stereo not drawn) [GS-087, N-((5-(2,6-dioxopiperidin-3-yl)-4-oxo-5,6-dihydro-4H-thieno[3,4-c]pyrrol-1-yl)methyl)-2-((3-(4-(4-(quinoxalin-2-yl)-1H-pyrazol-1-yl)piperidin-1-yl)phenyl)amino)acetamide] | > 8.00 | > 8.00 | > 8.00 | > 8.00 | – | – | – | –
O=C1CCC(N2Cc3c(Nc4ccnc(NCCCN5CCC(n6cc(-c7cnc8ccccc8n7)cn6)CC5)n4)cccc3C2=O)C(=O)N1 (stereo not drawn) [GS-088, 3-(1-Oxo-4-((2-((3-(4-(4-(quinoxalin-2-yl)-1H-pyrazol-1-yl)piperidin-1-yl)propyl)amino)pyrimidin-4-yl)amino)isoindolin-2-yl)piperidine-2,6-dione] | < 6.00 | < 6.00 | < 6.00 | < 6.00 | – | – | – | –
O=C(CC1CCC(N2CCC(n3cc(-c4cnc5ccccc5n4)cn3)CC2)CC1)NCc1ccc2c(c1)CN(C1CCC(=O)NC1=O)C2=O (stereo not drawn) [GS-089, N-((2-(2,6-dioxopiperidin-3-yl)-1-oxoisoindolin-5-yl)methyl)-2-(4-(4-(4-(quinoxalin-2-yl)-1H-pyrazol-1-yl)piperidin-1-yl)cyclohexyl)acetamide] | < 6.00 | < 6.00 | < 6.00 | < 6.00 | – | – | – | –
O=C1CCC(N2Cc3c(Nc4cccc(Nc5cccc(N6CCC(n7cc(-c8cnc9ccccc9n8)cn7)CC6)c5)n4)cccc3C2=O)C(=O)N1 (stereo not drawn) [GS-090, 3-(1-Oxo-4-((6-((3-(4-(4-(quinoxalin-2-yl)-1H-pyrazol-1-yl)piperidin-1-yl)phenyl)amino)pyridin-2-yl)amino)isoindolin-2-yl)piperidine-2,6-dione] | 7.00 to 8.00 | > 8.00 | 7.00 to 8.00 | > 8.00 | – | – | – | –
O=C1CCC(N2Cc3c(Nc4ccnc(NCC(=O)N5CCC(n6cc(-c7cnc8ccccc8n7)cn6)CC5)n4)cccc3C2=O)C(=O)N1 (stereo not drawn) [GS-091, 3-(1-Oxo-4-((2-((2-oxo-2-(4-(4-(quinoxalin-2-yl)-1H-pyrazol-1-yl)piperidin-1-yl)ethyl)amino)pyrimidin-4-yl)amino)isoindolin-2-yl)piperidine-2,6-dione] | < 6.00 | < 6.00 | < 6.00 | < 6.00 | – | – | – | –
O=C1CCC(N2Cc3c(Nc4ccnc(NC5CCC(N6CCC(n7cc(-c8cnc9ccccc9n8)cn7)CC6)C5)n4)cccc3C2=O)C(=O)N1 (stereo not drawn) [GS-092, 3-(1-Oxo-4-((2-((3-(4-(4-(quinoxalin-2-yl)-1H-pyrazol-1-yl)piperidin-1-yl)cyclopentyl)amino)pyrimidin-4-yl)amino)isoindolin-2-yl)piperidine-2,6-dione] | < 6.00 | < 6.00 | < 6.00 | < 6.00 | – | – | – | –
O=C1CCC(N2Cc3c(csc3CNC(=O)Nc3cccc(N4CCC(n5cc(-c6cnc7ccccc7n6)cn5)CC4)c3)C2=O)C(=O)N1 (stereo not drawn) [GS-093, 1-((5-(2,6-Dioxopiperidin-3-yl)-4-oxo-5,6-dihydro-4H-thieno[3,4-c]pyrrol-1-yl)methyl)-3-(3-(4-(4-(quinoxalin-2-yl)-1H-pyrazol-1-yl)piperidin-1-yl)phenyl)urea] | > 8.00 | > 8.00 | > 8.00 | > 8.00 | – | – | – | –
O=C1CCC(N2Cc3c(Nc4ccnc(Nc5cccc(N6CCC(N7CCCCC7)CC6)c5)n4)cccc3C2=O)C(=O)N1 (stereo not drawn) [GS-094, 3-(4-((2-((3-([1,4′-Bipiperidin]-1′-yl)phenyl)amino)pyrimidin-4-yl)amino)-1-oxoisoindolin-2-yl)piperidine-2,6-dione] | < 6.00 | < 6.00 | < 6.00 | < 6.00 | – | – | – | –
O=C1CCC(N2Cc3ccc(CCCCCC(=O)N4CCC(c5ccccc5)CC4)cc3C2=O)C(=O)N1 (stereo not drawn) [GS-095, 3-(1-Oxo-6-(6-oxo-6-(4-phenylpiperidin-1-yl)hexyl)isoindolin-2-yl)piperidine-2,6-dione] | – | – | – | – | 6.00 to 7.00 | 7.00 to 8.00 | 6.00 to 7.00 | 7.00 to 8.00
O=C1CCC(N2Cc3ccc(CCCCCCC(=O)N4CCN(c5ccccn5)CC4)cc3C2=O)C(=O)N1 (stereo not drawn) [GS-096, 3-(1-Oxo-6-(7-oxo-7-(4-(pyridin-2-yl)piperazin-1-yl)heptyl)isoindolin-2-yl)piperidine-2,6-dione] | – | – | – | – | 6.00 to 7.00 | > 8.00 | 7.00 to 8.00 | > 8.00
O=C1CCC(N2Cc3ccc(CCCCCCC(=O)N4CCC(n5cc(-c6cnc7ccccc7n6)cn5)CC4)cc3C2=O)C(=O)N1 (stereo not drawn) [GS-097, 3-(1-Oxo-6-(7-oxo-7-(4-(4-(quinoxalin-2-yl)-1H-pyrazol-1-yl)piperidin-1-yl)heptyl)isoindolin-2-yl)piperidine-2,6-dione] | 7.00 to 8.00 | > 8.00 | 7.00 to 8.00 | > 8.00 | – | – | – | –
O=C1CCC(N2Cc3ccc(CCCCCCC(=O)N4CCC(n5cc(-c6ccc7ccccc7n6)cn5)CC4)cc3C2=O)C(=O)N1 (stereo not drawn) [GS-098, 3-(1-Oxo-6-(7-oxo-7-(4-(4-(quinolin-2-yl)-1H-pyrazol-1-yl)piperidin-1-yl)heptyl)isoindolin-2-yl)piperidine-2,6-dione] | 6.00 to 7.00 | > 8.00 | 7.00 to 8.00 | 7.00 to 8.00 | – | – | – | –
